We go through 58 compounds from PubChem BioAssay AID463206 (Broad Institute, 2010).

Calls of active or inactive are those of the source.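 How the source made its calls: active means caspase luminescence falls with dose and the half-maximal concentration AC50 from the fitted curve is at or below a set limit; inconclusive means flat fit at 30 to 70% signal loss, or invalid fit; inactive means AC50 above the limit, or signal rises instead.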 Bounds are passed on as bounds.

This assay relates to INS-1E cytokine-induced caspase-3/7, Caspase-Glo luminescence, 48 h. The experiment in a line: suppression of cytokine-driven beta-cell apoptosis – INS-1E rat cells, luminescence, orthogonal assay for beta-cell apoptosis protection project, dose response (AID 463206).
`O=C(N/N=C/c1c(O)ccc2ccccc12)c1ccc(Br)o1`: the AC50 was > 26 µM (inactive).

Regarding `Cc1ccc(OCc2cc(C(=O)N(C)Cc3cc(C4CC4)n[nH]3)no2)cc1C`, the AC50 was > 26 µM (inactive).

`CN(c1ccccc1)S(=O)(=O)c1ccc(NC(=O)c2nc(S(C)(=O)=O)ncc2Cl)cc1`: the AC50 is > 26 µM (inactive).

On to `CC(C)CN(C(=O)COC(=O)C12CC3CC(CC(C3)C1)C2)c1c(N)n(Cc2ccccc2)c(=O)[nH]c1=O`, for which the AC50 is > 26 µM (inactive).

On to `Cc1ccc(-c2c[n+]3c(n2-c2ccccc2)SCC3)cc1`, for which the AC50 was > 26 µM (inactive).

Regarding `Cc1nc(N2CCN(C(=O)c3ccco3)CC2)c2c3c(sc2n1)CC(C)CC3` (stereo not drawn), the AC50 is > 26 µM (inactive).

On to `Fc1ccccc1N=C1NN=C(c2ccccc2)CS1`, for which the AC50 was > 26 µM (inactive).

With `CCN1CCN(c2ccc(S(=O)(=O)N3CCCCC3)cc2NC(=O)c2ccc([N+](=O)[O-])s2)CC1`, the AC50 is > 26 µM (inactive).

In the case of `COc1ccc(-c2c[n+]3c4n2CCCCC4=C(c2ccc(Br)cc2)C3)cc1`, the AC50 was > 26 µM (inactive).

Consider `Cc1cc(C)nc(OC(=O)c2ccc(Cl)cc2Cl)n1`, for which the AC50 was > 26 µM (inactive).

Regarding `CC(=O)NN1C(=O)c2ccc3c4c(ccc(c24)C1=O)C(=O)N(NC(C)=O)C3=O`, the AC50 is > 26 µM (inactive).

With `Cc1ccc(-c2nc(C(Cl)Cl)c3ccccc3n2)cc1`, the AC50 is 2.66 µM.

As for `COc1ccc(N/N=C/c2c(C(=O)O)ccc3ccccc23)cc1`, the AC50 was > 26 µM (inactive).

As to `O=C(Nc1nc(-c2ccccn2)cs1)c1ccc(Cl)s1`, the AC50 was > 26 µM (inactive).

Turning to `O=C(Nc1ccc(N2CCN(C(=O)c3ccc(Cl)cc3)CC2)cc1)c1cccnc1`, the AC50 is > 26 µM (inactive).

For the compound `CCCC[C@@H](CN[C@H](C)CNC)NCC1CCC(C(C)(C)C)CC1` (stereo partly drawn), the AC50 was 25.6 µM.

On to `Cc1ccc2ccc3ccc(C)nc3c2n1`, for which the AC50 was > 26 µM (inactive).

For `CC(C)(C)OC(=O)NCc1ccc(NC(=O)c2nc[nH]c2C(=O)NCCCCNC(=O)c2[nH]cnc2C(=O)Nc2ccc(CNC(=O)OC(C)(C)C)cc2)cc1`, the AC50 is > 26 µM (inactive).

With `O=C(c1ccco1)N1N=C(c2ccc(Br)cc2)CC1c1ccco1` (stereo not drawn), the AC50 was > 26 µM (inactive).

In the case of `COc1ccc(S(=O)(=O)Nc2ccc(O)c3ccccc23)cc1`, the AC50 was > 26 µM (inactive).

For the compound `C#CCOCCOCCOCCNc1nc(N2CCN(C(=O)CCCCCCCCCCNC(=O)Cn3cc(CCCCCN)nn3)CC2)nc(N2CCN(C(=O)CCCCCCCCCCNC(=O)[C@H]([C@@H](C)CC)n3cc(CCCCN=C(N)N)nn3)CC2)n1`, the AC50 was > 26 µM (inactive).

As to `CC1CCN(c2ccc(NC(=O)c3ccc([N+](=O)[O-])o3)cc2)CC1`, the AC50 was > 26 µM (inactive).

Turning to `Cc1[nH]n(-c2ccccc2)c(=O)c1/C=N/Nc1nncc(-c2ccccc2)n1`, the AC50 is > 26 µM (inactive).

For the compound `COc1ccc(C)cc1Nc1n[n+](-c2ccccc2)c(-c2c(Cl)cccc2Cl)s1`, the AC50 was > 26 µM (inactive).

For `O=C(COc1ccc(Br)cc1)N1CCN(Cc2c[nH]c3ccccc23)CC1`, the AC50 was > 26 µM (inactive).

As to `O=C(/C(N=Nc1cccc([N+](=O)[O-])c1)=C(/O)c1ccc(Br)cc1)C(F)(F)F`, the AC50 is > 26 µM (inactive).

Consider `Cc1cc(C)n(-c2nc3ccccc3c(=O)n2OCC#N)n1`, for which the AC50 is > 26 µM (inactive).

Regarding `[O-]c1ccccc1-[n+]1c(-c2ccccc2)cc(-c2ccccc2)cc1-c1ccccc1`, the AC50 is > 26 µM (inactive).

Take `O=C(NCc1cccnc1)/C(=C\c1ccc(-c2ccc(Br)cc2)o1)S(=O)(=O)c1ccccc1`: the AC50 was > 26 µM (inactive).

For the compound `Cc1ncc(CO)c(/C=N/NC(=O)c2cc3c(s2)CCCC3)c1O`, the AC50 is > 26 µM (inactive).

With `Cc1ccc(NC(=O)C(C)Sc2nnc(C)n2C2CC2)cc1S(=O)(=O)N1CCOCC1` (stereo not drawn), the AC50 is > 26 µM (inactive).

For `CC[C@@]1(O)C(=O)OCc2c1cc1n(c2=O)Cc2cc3c(N)cccc3nc2-1`, the AC50 was 0.36 µM.

Take `CC1=NN(c2nc3ccccc3[nH]2)C(=O)C1Cc1ccccc1` (stereo not drawn): the AC50 is > 26 µM (inactive).

For `CC1CCN(Cc2c(C(=O)N/N=C/c3cc(Cl)ccc3O)nnn2-c2nonc2N)CC1`, the AC50 is > 26 µM (inactive).

With `COc1ccc(S(=O)(=O)N2CCNCC2)cc1OC`, the AC50 is > 26 µM (inactive).

Turning to `CCCCC(=O)NC(c1ccc(N(CC)CC)cc1)c1ccc2cccnc2c1O` (stereo not drawn), the AC50 was > 26 µM (inactive).

With `C#CCOCCOCCOCCNc1nc(N2CCN(C(=O)CCCCCCCCCCNC(=O)[C@H](CCCCN)n3cc(CCO)nn3)CC2)nc(N2CCN(C(=O)CCCCCCCCCCNC(=O)[C@H](CCCCN)n3cc(C[C@@H](C)CC)nn3)CC2)n1`, the AC50 was > 26 µM (inactive).

Consider `CCCC(=O)NC(c1ccccc1Cl)c1ccc2cccnc2c1O` (stereo not drawn), for which the AC50 is > 26 µM (inactive).

For `CC(=O)Nc1sc2c(c1-c1nc3ccccc3s1)CN(C(C)C)CC2`, the AC50 was > 26 µM (inactive).

For the compound `COc1ccccc1N1CCN(Cc2ccc(O)c3ncccc23)CC1`, the AC50 was > 26 µM (inactive).

On to `c1ccc(-c2nc3nonc3nc2-c2ccccc2)cc1`, for which the AC50 was > 26 µM (inactive).

`Cc1onc(-c2ccccc2)c1C(=O)NC(=S)NNC(=O)c1ccc(O)cc1O`: the AC50 is > 26 µM (inactive).

With `CN1/C(=C\C(=S)Nc2ccccc2)C(C)(C)c2ccccc21`, the AC50 was > 26 µM (inactive).

For `NC(N)=N/N=C/c1ccc(OCc2ccccc2)cc1`, the AC50 was > 26 µM (inactive).

As to `O=C(NC1=C(Nc2ccc(F)cc2)C(=O)c2ccccc2C1=O)c1ccc(Cl)cc1`, the AC50 was > 26 µM (inactive).

With `Cc1[nH]n(-c2ccc(Br)cc2)c(=O)c1/C=N/NC(=O)c1ccccc1`, the AC50 was > 26 µM (inactive).

As for `COc1ccc2c(c1)c(/C=N/Nc1nc3ccccc3[nH]1)c(C)n2C`, the AC50 was > 26 µM (inactive).

As for `O=C(Nc1nc(-c2ccccn2)cs1)c1cccc(-n2cnnn2)c1`, the AC50 was > 26 µM (inactive).

Turning to `O=C(CSc1nc2ccccc2c(=O)n1-c1ccccc1)N1CCc2ccccc2C1`, the AC50 is > 26 µM (inactive).

Turning to `Cc1ccc(S(=O)(=O)Nc2cc(Cl)c(O)c3ncccc23)cc1`, the AC50 is > 26 µM (inactive).

Consider `Cc1ccc2c(c1)S/C(=C/c1ccc[n+](CCO)c1)N2C`, for which the AC50 is > 26 µM (inactive).

As to `COc1ccc(NS(=O)(=O)c2ccc(-c3cnc(C4CC4)o3)cc2)cc1OC`, the AC50 was > 26 µM (inactive).

In the case of `COc1ccc(Sc2nc(-c3ccccn3)ncc2OC)cc1`, the AC50 is > 26 µM (inactive).

On to `COc1c(CC=C(C)C)cc(C2CC(=O)c3c(O)cc(O)cc3O2)cc1CC=C(C)C` (stereo not drawn), for which the AC50 was > 26 µM (inactive).

Regarding `CCN(CC)S(=O)(=O)c1cc(NC(=O)CNc2cccc(S(=O)(=O)N3CCCC3)c2)ccc1C`, the AC50 is > 26 µM (inactive).

With `CCN1C/C(=C/c2ccc(OC)c(O)c2)C(=O)/C(=C/c2ccc(OC)c(O)c2)C1`, the AC50 was > 26 µM (inactive).

`Cc1cc(C)c(OCC(O)CNC(C)(C)C)c(C)c1` (stereo not drawn): the AC50 is > 26 µM (inactive).

Take `COC(=O)[C@H](CC(C)C)N(Cc1ccccc1)S(=O)(=O)N(Cc1ccc(OC)cc1)[C@@H](CC(C)C)C(=O)OC`: the AC50 was > 26 µM (inactive).

The AC50 is the concentration at which the activity in the assay is half-maximal.
